From ChEMBL document CHEMBL1201862, “PubChem BioAssay data set” (2004)
Activity calls are given as the source filed them.

Legend:
[1] = molecular target: Luciferin 4-monooxygenase (Photinus pyralis, UniProt P08659); test: inhibition of purified Photinus pyralis luciferase – biochemical, luminescence, dose response (AID 1891)
[2] = Luminescence Cell-Based Dose Confirmation HTS to Identify Inhibitors of Platelet Dense Granule Release. [Related pubchem assays: 1663 (Primary HTS), 1678 (Summary of Project)]; assay type: functional
[3] = test system: HEK293; test: EBV LMP1 TES2 canonical NF-kB signalling blockers – cell-based, HEK293, luciferase, cherry-pick, dose response (AID 588343); assay type: functional; conditions: Homo sapiens
[4] = cells; assay type: functional, cell-based
[5] = molecular target: T1, Nuclear receptor subfamily 0 group B member 1 (Homo sapiens, UniProt P51843); assay type: functional, cell-based;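 note: HEK293T cells transfected with SF-1 and DAX-1 plus StAR promoter luciferase reporter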
T1 sequence (P51843 whole entry): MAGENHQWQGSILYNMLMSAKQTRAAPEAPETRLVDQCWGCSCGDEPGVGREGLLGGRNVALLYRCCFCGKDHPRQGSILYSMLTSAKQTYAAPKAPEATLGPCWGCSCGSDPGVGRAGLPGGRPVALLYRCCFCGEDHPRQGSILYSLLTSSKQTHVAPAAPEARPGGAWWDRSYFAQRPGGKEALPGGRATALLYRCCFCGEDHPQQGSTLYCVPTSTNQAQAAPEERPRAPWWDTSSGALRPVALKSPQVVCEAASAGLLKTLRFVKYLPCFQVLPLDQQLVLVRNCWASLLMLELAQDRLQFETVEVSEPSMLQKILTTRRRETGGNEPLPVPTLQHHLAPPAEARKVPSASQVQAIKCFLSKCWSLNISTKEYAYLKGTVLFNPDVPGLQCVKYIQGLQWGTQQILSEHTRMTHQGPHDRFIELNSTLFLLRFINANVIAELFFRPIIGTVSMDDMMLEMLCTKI

[6] = viability loss in HepG2 hepatoma cells – cell-based, ATP luminescence, cherry-pick, activator set 2, cytotoxicity control, dose response (AID 1053143); assay type: functional
[7] = molecular target: T2, Oxysterols receptor LXR-beta (Homo sapiens, UniProt P55055); assay type: functional, cell-based;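 note: Cell-based luminescence dose-response assay of agonist activity at LXR, run as a confirmatory counterscreen to a daf-12 agonist screen; HEK293 cells with Gal4-LXR fusion and GAL4-driven luciferase reporter; agonist potency from rising luciferase signal of a Gal4-LXR reporter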
T2 sequence (P55055 whole entry): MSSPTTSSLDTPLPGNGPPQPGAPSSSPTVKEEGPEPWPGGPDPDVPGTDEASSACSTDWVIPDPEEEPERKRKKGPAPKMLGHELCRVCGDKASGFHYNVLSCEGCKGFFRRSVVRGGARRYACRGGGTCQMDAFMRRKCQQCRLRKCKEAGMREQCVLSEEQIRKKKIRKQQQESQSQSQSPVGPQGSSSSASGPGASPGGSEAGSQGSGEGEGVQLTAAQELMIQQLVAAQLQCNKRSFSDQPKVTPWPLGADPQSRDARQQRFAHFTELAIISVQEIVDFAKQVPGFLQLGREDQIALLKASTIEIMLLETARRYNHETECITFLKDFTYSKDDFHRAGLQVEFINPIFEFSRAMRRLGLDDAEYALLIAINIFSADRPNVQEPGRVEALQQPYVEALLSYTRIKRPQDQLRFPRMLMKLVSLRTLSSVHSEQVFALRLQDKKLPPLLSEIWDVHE

[8] = cells
[9] = molecular target: T3, RNA-binding protein pos-1 (Caenorhabditis elegans, UniProt G5EF15); test: disruptors of C. elegans POS-1 RNA interaction – biochemical, fluorescence polarization, dose response (AID 1964);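 note: purified POS-1 fused to maltose binding protein made in E. coli; potency of compounds blocking POS-1 binding to fluorescent RNA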
T3 sequence (G5EF15 whole entry): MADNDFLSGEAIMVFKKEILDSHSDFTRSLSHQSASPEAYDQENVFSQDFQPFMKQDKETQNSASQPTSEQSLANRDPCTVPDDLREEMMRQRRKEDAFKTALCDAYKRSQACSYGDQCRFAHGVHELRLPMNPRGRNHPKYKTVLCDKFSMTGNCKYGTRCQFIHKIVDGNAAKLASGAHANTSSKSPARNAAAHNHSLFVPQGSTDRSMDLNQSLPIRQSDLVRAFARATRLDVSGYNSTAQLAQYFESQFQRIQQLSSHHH

[10] = molecular target: T4, Zinc finger protein mex-5 (Caenorhabditis elegans, UniProt Q9XUB2); test: potency of MEX-5 RNA-binding blockers – biochemical, C. elegans, fluorescence polarization, dose response (AID 1960)
T4 sequence (Q9XUB2 whole entry): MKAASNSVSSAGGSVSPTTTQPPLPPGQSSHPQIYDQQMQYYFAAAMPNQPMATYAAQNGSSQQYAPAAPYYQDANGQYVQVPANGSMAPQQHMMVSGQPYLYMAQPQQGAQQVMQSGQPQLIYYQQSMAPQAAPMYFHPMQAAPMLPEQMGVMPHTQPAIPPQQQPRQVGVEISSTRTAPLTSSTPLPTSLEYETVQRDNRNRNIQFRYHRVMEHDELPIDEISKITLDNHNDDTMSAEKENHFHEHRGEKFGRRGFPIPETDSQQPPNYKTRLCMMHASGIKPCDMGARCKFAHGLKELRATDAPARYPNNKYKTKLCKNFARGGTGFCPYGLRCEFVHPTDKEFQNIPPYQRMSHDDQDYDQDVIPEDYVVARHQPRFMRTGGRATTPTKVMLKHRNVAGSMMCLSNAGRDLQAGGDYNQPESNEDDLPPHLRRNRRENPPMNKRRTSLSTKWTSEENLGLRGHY

[11] = molecular target: 1-phosphatidylinositol 4,5-bisphosphate phosphodiesterase gamma-1 (Homo sapiens, UniProt P19174); test: Counterscreen for inhibitors of phospholipase C isozymes (PLC-B3): Fluorescence-based biochemical high throughput dose response assay to identify inhibitors of phospholipase C isozymes (PLC-gamma1).
Sequence of 1-phosphatidylinositol 4,5-bisphosphate phosphodiesterase gamma-1 (P19174 whole entry): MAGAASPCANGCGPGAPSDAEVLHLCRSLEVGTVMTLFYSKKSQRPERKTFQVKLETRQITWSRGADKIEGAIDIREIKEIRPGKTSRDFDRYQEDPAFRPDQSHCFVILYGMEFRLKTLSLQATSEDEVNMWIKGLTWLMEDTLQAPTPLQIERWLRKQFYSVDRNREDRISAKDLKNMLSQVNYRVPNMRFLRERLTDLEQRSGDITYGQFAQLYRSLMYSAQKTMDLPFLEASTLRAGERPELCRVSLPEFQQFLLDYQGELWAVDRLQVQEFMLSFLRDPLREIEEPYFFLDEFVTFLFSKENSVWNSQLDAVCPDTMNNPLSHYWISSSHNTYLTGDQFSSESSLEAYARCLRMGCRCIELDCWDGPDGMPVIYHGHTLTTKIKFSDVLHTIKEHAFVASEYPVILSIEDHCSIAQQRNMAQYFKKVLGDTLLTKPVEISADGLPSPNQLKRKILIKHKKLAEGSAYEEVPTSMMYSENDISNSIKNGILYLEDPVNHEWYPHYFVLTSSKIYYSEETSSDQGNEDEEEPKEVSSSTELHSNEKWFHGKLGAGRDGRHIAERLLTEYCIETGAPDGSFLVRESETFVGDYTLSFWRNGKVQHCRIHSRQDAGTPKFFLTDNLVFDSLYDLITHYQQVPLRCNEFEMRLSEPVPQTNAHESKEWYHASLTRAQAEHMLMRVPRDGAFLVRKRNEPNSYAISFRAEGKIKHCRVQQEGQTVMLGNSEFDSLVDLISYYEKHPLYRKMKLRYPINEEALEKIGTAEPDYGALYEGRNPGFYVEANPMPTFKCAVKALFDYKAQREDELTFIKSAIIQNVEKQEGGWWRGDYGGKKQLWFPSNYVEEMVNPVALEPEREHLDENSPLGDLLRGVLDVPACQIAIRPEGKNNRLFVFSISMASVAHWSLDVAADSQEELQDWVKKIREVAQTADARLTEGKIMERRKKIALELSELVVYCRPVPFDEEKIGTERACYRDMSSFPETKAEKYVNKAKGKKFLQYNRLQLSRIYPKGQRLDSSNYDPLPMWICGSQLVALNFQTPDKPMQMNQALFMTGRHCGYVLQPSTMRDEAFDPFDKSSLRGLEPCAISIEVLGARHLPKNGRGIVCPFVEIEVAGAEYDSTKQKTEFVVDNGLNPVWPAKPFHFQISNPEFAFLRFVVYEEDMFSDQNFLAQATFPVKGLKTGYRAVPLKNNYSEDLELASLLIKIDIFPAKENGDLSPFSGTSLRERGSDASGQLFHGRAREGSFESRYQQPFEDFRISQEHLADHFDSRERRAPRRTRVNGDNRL

[12] = molecular target: 1-phosphatidylinositol 4,5-bisphosphate phosphodiesterase beta-3 (Homo sapiens, UniProt Q01970); test: Fluorescence-based biochemical high throughput dose response assay to identify inhibitors of phospholipase C isozymes (PLC-B3).
Sequence of 1-phosphatidylinositol 4,5-bisphosphate phosphodiesterase beta-3 (Q01970 whole entry): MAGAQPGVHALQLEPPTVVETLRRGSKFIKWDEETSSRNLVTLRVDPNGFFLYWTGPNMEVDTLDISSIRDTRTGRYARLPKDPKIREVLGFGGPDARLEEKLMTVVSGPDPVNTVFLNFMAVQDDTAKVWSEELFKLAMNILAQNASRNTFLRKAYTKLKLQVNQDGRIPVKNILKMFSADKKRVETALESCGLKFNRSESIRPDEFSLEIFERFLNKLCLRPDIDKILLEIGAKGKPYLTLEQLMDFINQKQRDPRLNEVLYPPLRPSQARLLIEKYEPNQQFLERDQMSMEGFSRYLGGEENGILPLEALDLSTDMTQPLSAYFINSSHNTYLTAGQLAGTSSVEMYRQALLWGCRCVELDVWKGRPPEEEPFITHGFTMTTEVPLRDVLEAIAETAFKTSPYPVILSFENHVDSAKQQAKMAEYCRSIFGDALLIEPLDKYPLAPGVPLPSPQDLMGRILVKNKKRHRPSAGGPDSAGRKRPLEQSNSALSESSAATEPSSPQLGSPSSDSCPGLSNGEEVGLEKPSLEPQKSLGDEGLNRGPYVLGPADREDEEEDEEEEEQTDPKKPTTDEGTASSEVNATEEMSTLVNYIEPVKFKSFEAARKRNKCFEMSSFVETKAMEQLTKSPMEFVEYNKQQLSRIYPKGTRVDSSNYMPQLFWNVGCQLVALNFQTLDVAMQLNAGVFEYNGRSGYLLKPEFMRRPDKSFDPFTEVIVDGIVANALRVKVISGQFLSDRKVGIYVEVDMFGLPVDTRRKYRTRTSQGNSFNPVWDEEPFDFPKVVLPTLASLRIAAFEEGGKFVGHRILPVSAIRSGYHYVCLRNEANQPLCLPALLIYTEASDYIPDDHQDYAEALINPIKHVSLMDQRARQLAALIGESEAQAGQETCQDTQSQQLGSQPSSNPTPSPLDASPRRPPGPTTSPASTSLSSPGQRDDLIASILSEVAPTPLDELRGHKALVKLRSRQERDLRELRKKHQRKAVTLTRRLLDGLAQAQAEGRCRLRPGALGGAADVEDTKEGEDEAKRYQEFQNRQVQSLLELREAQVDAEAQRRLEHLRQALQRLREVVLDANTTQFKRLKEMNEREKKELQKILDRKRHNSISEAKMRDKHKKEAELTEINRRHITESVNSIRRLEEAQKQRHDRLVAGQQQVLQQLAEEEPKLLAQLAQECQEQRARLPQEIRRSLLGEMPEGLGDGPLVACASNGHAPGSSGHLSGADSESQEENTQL

[13] = test system: BJ; test: BJ-TERT fibroblast viability loss – cell-based, RAS-independent, luminescence, dose response (AID 1933); assay type: functional; conditions: Homo sapiens
[14] = test system: BJ; test: cells; assay type: functional, cell-based; conditions: Homo sapiens
[15] = test system: BJ; test: BJ-TERT-LT-ST fibroblast viability loss – cell-based, RAS-independent, luminescence, dose response (AID 1935); assay type: functional; conditions: Homo sapiens;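 note: BJ fibroblasts immortalized with TERT plus LT and ST oncogenes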
[16] = DRD fibroblast viability loss – cell-based, non-viral oncogenic, luminescence, dose response (AID 1934); assay type: functional; conditions: Homo sapiens
[17] = test system: INS1; test: INS-1E survival protection against cytokine death – cell-based, luminescence, retest, dose response (AID 449756); assay type: functional; conditions: Rattus norvegicus;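 note: cell death triggered by IL-1 beta plus TNF-alpha plus IFN-gamma mixture; protective hits raise ATP signal compared with cytokine alone wells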
[18] = A549 cell cytotoxicity, dose response, cytotoxicity control, plate reader, cherry-pick, antagonist series (AID 743412); assay type: functional, cell-based
[19] = toxicity toward HepG2 liver cells – cell-based, plate reader, cherry-pick, antagonist series, cytotoxicity control, dose response (AID 743416); assay type: functional
[20] = blockers of bursicon-stimulated LGR2 cAMP reporter – cell-based, HEK293, CRE-luciferase reporter, cherry pick, set 2, dose response (AID 743343); assay type: functional;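 note: transfected cells were stimulated with diluted bursicon conditioned medium after compound addition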
[21] = blockade of melanocortin 4 receptor signaling – cell-based, plate reader, cherry pick, counter-screen for LGR2 antagonist project, dose response (AID 743444); assay type: functional;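 note: transfected HEK 293 cells stimulated with alpha-MSH peptide; potency of inhibitors of the alpha-MSH evoked signal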
[22] = molecular target: Endoplasmic reticulum aminopeptidase 1 (Homo sapiens, UniProt Q9NZ08); test: inhibition of human ERAP1 enzyme activity – biochemical, cherry-pick, set 2, plate reader, dose response (AID 743314)
Sequence of Endoplasmic reticulum aminopeptidase 1 (Q9NZ08 whole entry): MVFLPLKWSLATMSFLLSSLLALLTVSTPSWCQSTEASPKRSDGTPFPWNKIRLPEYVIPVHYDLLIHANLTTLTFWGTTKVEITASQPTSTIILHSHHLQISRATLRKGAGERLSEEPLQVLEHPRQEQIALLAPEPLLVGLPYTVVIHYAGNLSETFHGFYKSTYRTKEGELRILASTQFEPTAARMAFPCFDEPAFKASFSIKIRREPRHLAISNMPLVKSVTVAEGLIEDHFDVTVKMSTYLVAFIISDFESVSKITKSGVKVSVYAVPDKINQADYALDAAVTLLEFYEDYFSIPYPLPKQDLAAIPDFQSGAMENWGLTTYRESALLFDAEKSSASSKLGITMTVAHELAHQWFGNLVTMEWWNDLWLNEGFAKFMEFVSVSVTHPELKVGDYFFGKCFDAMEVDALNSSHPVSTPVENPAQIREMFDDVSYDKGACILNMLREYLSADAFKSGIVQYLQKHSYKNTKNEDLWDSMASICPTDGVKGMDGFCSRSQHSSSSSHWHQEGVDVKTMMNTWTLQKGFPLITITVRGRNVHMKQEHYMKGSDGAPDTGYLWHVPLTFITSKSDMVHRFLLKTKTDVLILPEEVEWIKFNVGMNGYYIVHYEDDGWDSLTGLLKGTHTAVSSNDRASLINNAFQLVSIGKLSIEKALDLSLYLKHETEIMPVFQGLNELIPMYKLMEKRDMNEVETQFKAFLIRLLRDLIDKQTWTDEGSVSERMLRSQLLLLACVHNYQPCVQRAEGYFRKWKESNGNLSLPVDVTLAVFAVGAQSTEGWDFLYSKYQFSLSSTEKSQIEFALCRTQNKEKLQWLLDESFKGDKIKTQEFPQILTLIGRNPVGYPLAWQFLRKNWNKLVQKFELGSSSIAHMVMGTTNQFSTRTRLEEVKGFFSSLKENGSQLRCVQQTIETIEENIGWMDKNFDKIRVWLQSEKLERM

[23] = viability loss in HEK293 cells – cell-based, plate reader, cherry-picked samples, cytotoxicity control, dose response (AID 743446); assay type: functional
[24] = Luminescence Cell-Based Dose Response HTS to Identify Activators of Luciferase Translation or Activity in H4 […] Cells. [Related pubchem assays: 1829 (Project Summary), 1814 (Primary HTS)]; assay type: functional
[25] = cells; assay type: functional, cell-based; remark: listed apart in the source
[26] = test system: H4; test: Luminescence Cell-Based Dose Response HTS to Identify Activators of 5'UTR Stem-Loop Driven Prion Protein mRNA Translation in H4 Neuroglioblastoma Cells. [Related pubchem assays: 1829 (Project Summary), 1814 (Primary HTS)]; assay type: functional; conditions: Homo sapiens
[27] = cells; assay type: functional, cell-based; remark: listed apart in the source
[28] = molecular target: T5, Protein skinhead-1 (Caenorhabditis elegans, UniProt P34707); assay type: functional
T5 sequence (P34707 whole entry): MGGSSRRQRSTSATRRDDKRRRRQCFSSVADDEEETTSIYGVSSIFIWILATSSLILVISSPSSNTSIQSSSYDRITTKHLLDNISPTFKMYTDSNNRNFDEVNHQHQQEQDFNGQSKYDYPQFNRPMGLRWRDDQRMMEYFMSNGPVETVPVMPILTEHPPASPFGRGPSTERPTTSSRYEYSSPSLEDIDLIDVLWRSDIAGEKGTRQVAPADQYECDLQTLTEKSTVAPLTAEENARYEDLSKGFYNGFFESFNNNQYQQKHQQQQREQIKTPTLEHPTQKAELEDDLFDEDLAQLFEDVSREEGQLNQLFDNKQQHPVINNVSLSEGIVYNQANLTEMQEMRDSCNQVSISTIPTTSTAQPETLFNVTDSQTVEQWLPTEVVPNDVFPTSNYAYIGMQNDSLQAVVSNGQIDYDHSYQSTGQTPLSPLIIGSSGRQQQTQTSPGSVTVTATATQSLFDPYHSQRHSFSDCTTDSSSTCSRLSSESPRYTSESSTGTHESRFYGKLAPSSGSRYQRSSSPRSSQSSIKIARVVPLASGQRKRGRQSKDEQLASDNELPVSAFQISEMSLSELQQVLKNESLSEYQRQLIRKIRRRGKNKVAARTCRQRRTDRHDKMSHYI

[29] = test system: Jurkat; test: blockers of NF-kB activation in T cells – Jurkat, luciferase reporter, luminescence, B- and T-cell, dose response (AID 489004); assay type: functional, cell-based; conditions: Homo sapiens;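 note: NF-kB luciferase reporter Jurkat cells stimulated with PMA plus ionomycin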
[30] = HEK-293T viability loss, compound-treated – cell-based, uHTS hits, cytotoxicity control for B/T-cell NF-kB inhibitor project, dose response (AID 489019); assay type: functional;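 note: IC50 reflects cytotoxicity as loss of cell viability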
[31] = reduction of Shn3 3'UTR-driven luciferase in osteoblasts – cell-based, Clone20 osteoblasts, firefly luciferase, cherry-picked, dose response (AID 624132); assay type: functional;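 note: firefly luciferase luminescence from reporter carrying the Shn3 3'UTR in osteoblasts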
[32] = Shn3 3'UTR reporter signal decrease – cell-based, Clone20 osteoblasts, firefly luciferase, cherry-pick, set 2, Schnurri-3 inhibitor project, dose response (AID 720490); assay type: functional;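 note: actives lower the luminescence signal as inhibitors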

Sequence of Luciferin 4-monooxygenase (P08659 whole entry): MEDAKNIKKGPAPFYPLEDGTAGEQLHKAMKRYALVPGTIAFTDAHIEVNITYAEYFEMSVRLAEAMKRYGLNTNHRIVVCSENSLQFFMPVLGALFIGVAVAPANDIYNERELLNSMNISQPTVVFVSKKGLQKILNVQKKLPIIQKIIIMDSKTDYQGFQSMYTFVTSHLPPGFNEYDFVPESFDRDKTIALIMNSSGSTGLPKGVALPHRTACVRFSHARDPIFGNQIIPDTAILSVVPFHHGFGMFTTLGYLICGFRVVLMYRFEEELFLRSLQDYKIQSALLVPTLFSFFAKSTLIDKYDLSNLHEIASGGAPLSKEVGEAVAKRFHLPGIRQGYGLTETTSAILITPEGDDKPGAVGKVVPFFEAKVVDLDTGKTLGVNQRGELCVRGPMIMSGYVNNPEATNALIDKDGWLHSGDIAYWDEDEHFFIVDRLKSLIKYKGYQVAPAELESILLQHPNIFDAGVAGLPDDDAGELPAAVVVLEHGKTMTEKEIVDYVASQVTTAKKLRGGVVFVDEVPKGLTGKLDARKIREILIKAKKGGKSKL

## Cc1ccnc(NC(=O)c2ccc(OCC3CCCO3)cc2)c1 (stereo not given)
[1]
  EC50: 7.94 µM (active)
[2]
  EC50: 5.2 µM (active)
[3]
  AC50: 2.57 µM (active)
[4]
  IC50: > 67.5 µM (inactive)
[5]
  IC50: > 67.5 µM (inactive)
[6]
  AC50: 26 µM (active)

## COc1ccccc1C(=O)NC(=O)Nc1cccc(Cl)c1
[7]
  EC50: > 67.5 µM (inactive)
[8]
  EC50: > 67.5 µM (inactive)

## N#C/C(=C\c1cc(O)c(O)c(O)c1)C(N)=O
[9]
  EC50: 134 µM (active)
[10]
  EC50: > 150 µM (inconclusive)
[11]
  IC50: > 122 µM (inactive)
[12]
  IC50: > 122 µM (inactive)

## Cc1cc2nc(-c3cccnc3O)[nH]c2cc1C
[13]
  EC50: 4.58 µM (active)
[14]
  EC50: 8.47 µM (active)
[1]
  EC50: 1.07 µM (active)
[2]
  EC50: 1.73 µM (active)
[15]
  EC50: 13.3 µM (active)
[16]
  EC50: 4.3 µM (active)
[17]
  AC50: 3.23 µM (active)
[18]
  AC50: 8.69 µM (active)
[19]
  AC50: 7.17 µM (active)
[20]
  AC50: 2.48 µM (active)
[21]
  AC50: 2.69 µM (active)
[22]
  AC50: 7.63 µM (active)
[23]
  AC50: 6.43 µM (active)

## O=C(NC1CCCC1)c1cc(-c2ccccc2)on1
[24]
  EC50: 0.355 µM (active)
[25]
  EC50: 330 µM (active)
[26]
  EC50: 3.13 µM (active)
[27]
  EC50: > 350 µM (not active)
[28]
  IC50: > 100 µM (inactive)
[6]
  AC50: 26 µM (active)

## CCn1c(C)cc(C(=O)COC(=O)c2ccccc2[N+](=O)[O-])c1C
[29]
  IC50: < 0.16 µM (active)
[30]
  IC50: > 80 µM (inactive)
[31]
  AC50: < 0.26 µM (active)
[32]
  AC50: < 0.135 µM (active)
